Experimental data published in ChEMBL document CHEMBL2406981, “Novel pyrazoline amidoxime and their 1,2,4-oxadiazole analogues: synthesis and pharmacological screening” (Bioorg Med Chem Lett, 2013).
In brackets after ≈: the same amount, converted by molar mass.

Columns and labels:
Assay type in all cases: functional
[1] = Antiinflammatory activity against heat-induced albumin denaturation at […] preincubated for 15 mins before heat induction by UV-vis spectrophotometer analysis
[2] = tested on: Aspergillus flavus; experiment: Antimicrobial activity against Aspergillus flavus MTCC 873
[3] = tested on: Aspergillus niger; experiment: Antimicrobial activity against Aspergillus niger MTCC 281
[4] = tested on: Shigella flexneri; experiment: Antimicrobial activity against Shigella flexneri MTCC 1457
[5] = tested on: Escherichia coli; experiment: Antimicrobial activity against Escherichia coli MTCC 724
[6] = tested on: Klebsiella pneumoniae; experiment: Antimicrobial activity against Klebsiella pneumoniae MTCC 3384
[7] = tested on: Staphylococcus aureus; experiment: Antimicrobial activity against Staphylococcus aureus MTCC 96
[8] = tested on: Bacillus cereus; experiment: Antimicrobial activity against Bacillus cereus MTCC 8372
[9] = tested on: Aspergillus niger; experiment: Antimicrobial activity against Aspergillus niger MTCC 281 at 50 ug/ml after 24 hrs by agar disc diffusion method; settings: MTCC 281, 24 h, read-out: DIZ
[10] = tested on: Aspergillus niger; experiment: Antimicrobial activity against Aspergillus niger MTCC 281 at 100 ug/ml after 24 hrs by agar disc diffusion method; settings: MTCC 281, 24 h, read-out: DIZ
[11] = tested on: Aspergillus flavus; experiment: Antimicrobial activity against Aspergillus flavus MTCC 873 at 100 ug/ml after 24 hrs by agar disc diffusion method; settings: MTCC 873, 24 h, read-out: DIZ
[12] = tested on: Aspergillus flavus; experiment: Antimicrobial activity against Aspergillus flavus MTCC 873 at 50 ug/ml after 24 hrs by agar disc diffusion method; settings: MTCC 873, 24 h, read-out: DIZ
[13] = tested on: Shigella flexneri; experiment: Antimicrobial activity against Shigella flexneri MTCC 1457 at 100 ug/ml after 24 hrs by agar disc diffusion method; settings: MTCC 1457, 24 h, read-out: DIZ
[14] = tested on: Shigella flexneri; experiment: Antimicrobial activity against Shigella flexneri MTCC 1457 at 50 ug/ml after 24 hrs by agar disc diffusion method; settings: MTCC 1457, 24 h, read-out: DIZ
[15] = tested on: Klebsiella pneumoniae; experiment: Antimicrobial activity against Klebsiella pneumoniae MTCC 3384 at 100 ug/ml after 24 hrs by agar disc diffusion method; settings: MTCC 3384, 24 h, read-out: DIZ
[16] = tested on: Klebsiella pneumoniae; experiment: Antimicrobial activity against Klebsiella pneumoniae MTCC 3384 at 50 ug/ml after 24 hrs by agar disc diffusion method; settings: MTCC 3384, 24 h, read-out: DIZ
[17] = tested on: Escherichia coli; experiment: Antimicrobial activity against Escherichia coli MTCC 724 at 100 ug/ml after 24 hrs by agar disc diffusion method; settings: MTCC 724, 24 h, read-out: DIZ
[18] = tested on: Escherichia coli; experiment: Antimicrobial activity against Escherichia coli MTCC 724 at 50 ug/ml after 24 hrs by agar disc diffusion method; settings: MTCC 724, 24 h, read-out: DIZ
[19] = tested on: Staphylococcus aureus; experiment: Antimicrobial activity against Staphylococcus aureus MTCC 96 at 100 ug/ml after 24 hrs by agar disc diffusion method; settings: MTCC 96, 24 h, read-out: DIZ
[20] = tested on: Staphylococcus aureus; experiment: Antimicrobial activity against Staphylococcus aureus MTCC 96 at 50 ug/ml after 24 hrs by agar disc diffusion method; settings: MTCC 96, 24 h, read-out: DIZ
[21] = tested on: Bacillus cereus; experiment: Antimicrobial activity against Bacillus cereus MTCC 8372 at 100 ug/ml after 24 hrs by agar disc diffusion method; settings: MTCC 8372, 24 h, read-out: DIZ
[22] = tested on: Bacillus cereus; experiment: Antimicrobial activity against Bacillus cereus MTCC 8372 at 50 ug/ml after 24 hrs by agar disc diffusion method; settings: MTCC 8372, 24 h, read-out: DIZ
[23] = Antioxidant activity against ferric chloride-induced lipid peroxidation using egg lecithin at 50 ug/ml after 1 hr
[24] = Antioxidant activity against ferric chloride-induced lipid peroxidation using egg lecithin at 100 ug/ml after 1 hr
[25] = Antioxidant activity against ferric chloride-induced lipid peroxidation using egg lecithin at 10 ug/ml after 1 hr
[26] = Antioxidant activity assessed as reducing power of ferric ion at 50 ug/ml after 20 mins; parameters: scale not given: the % may be the effect or the level left
[27] = Antioxidant activity assessed as reducing power of ferric ion at 100 ug/ml after 20 mins; parameters: scale not given: the % may be the effect or the level left
[28] = Antioxidant activity assessed as reducing power of ferric ion at 10 ug/ml after 20 mins; parameters: scale not given: the % may be the effect or the level left
[29] = tested on: Radical scavenging activity; experiment: Antioxidant activity assessed as DPPH free radical scavenging activity at 50 ug/ml after 20 mins
[30] = tested on: Radical scavenging activity; experiment: Antioxidant activity assessed as DPPH free radical scavenging activity at 100 ug/ml after 20 mins
[31] = tested on: Radical scavenging activity; experiment: Antioxidant activity assessed as DPPH free radical scavenging activity at 10 ug/ml after 20 mins

SMILES | inhibition [1] | MIC [2] | MIC [3] | MIC [4] | MIC [5] | MIC [6] | MIC [7] | MIC [8] | zone of inhibition at 50 µg/mL [9] | zone of inhibition at 100 µg/mL [10] | zone of inhibition at 100 µg/mL [11] | zone of inhibition at 50 µg/mL [12] | zone of inhibition at 100 µg/mL [13] | zone of inhibition at 50 µg/mL [14] | zone of inhibition at 100 µg/mL [15] | zone of inhibition at 50 µg/mL [16] | zone of inhibition at 100 µg/mL [17] | zone of inhibition at 50 µg/mL [18] | zone of inhibition at 100 µg/mL [19] | zone of inhibition at 50 µg/mL [20] | also measured
Clc1ccc(C2=NN(c3ccccc3)C(c3noc(-c4ccc(Cl)cc4)n3)C2)cc1 (stereo not given) | 78.4% | 10 µg/mL (≈ 23 µM) | 5 µg/mL (≈ 11.5 µM) | 20 µg/mL (≈ 45.9 µM) | 20 µg/mL (≈ 45.9 µM) | 25 µg/mL (≈ 57.4 µM) | 20 µg/mL (≈ 45.9 µM) | 25 µg/mL (≈ 57.4 µM) | 20 mm | 26 mm | 25 mm | 15 mm | 12 mm | 8 mm | 10 mm | 6 mm | 10 mm | 8 mm | 12 mm | 6 mm | zone of inhibition at 100 µg/mL [21]: 12 mm; zone of inhibition at 50 µg/mL [22]: 6 mm; inhibition [23]: 58%; inhibition [24]: 83%; inhibition [25]: 34%; Activity [26]: 32%; Activity [27]: 86%; Activity [28]: 16%; Activity [29]: 53%; Activity [30]: 82%; Activity [31]: 29%
COc1ccc(-c2nc(C3CC(c4ccc(O)cc4)=NN3c3ccccc3)no2)cc1OC (stereo not given) | 58.5% | 10 µg/mL (≈ 22.6 µM) | 5 µg/mL (≈ 11.3 µM) | 15 µg/mL (≈ 33.9 µM) | 25 µg/mL (≈ 56.5 µM) | 25 µg/mL (≈ 56.5 µM) | 20 µg/mL (≈ 45.2 µM) | 15 µg/mL (≈ 33.9 µM) | 18 mm | 26 mm | 20 mm | 14 mm | 18 mm | 10 mm | 12 mm | 8 mm | 12 mm | 7 mm | 18 mm | 8 mm | zone of inhibition at 100 µg/mL [21]: 16 mm; zone of inhibition at 50 µg/mL [22]: 10 mm; inhibition [23]: 45%; inhibition [24]: 73%; inhibition [25]: 32%; Activity [26]: 24%; Activity [27]: 75%; Activity [28]: 18%; Activity [29]: 53%; Activity [30]: 76%; Activity [31]: 31%
N/C(=N\O)C1CC(c2ccc(Cl)cc2)=NN1c1ccccc1 (stereo not given) | 59.1% | 25 µg/mL (≈ 79.4 µM) | 20 µg/mL (≈ 63.5 µM) | 20 µg/mL (≈ 63.5 µM) | 40 µg/mL (≈ 127 µM) | 20 µg/mL (≈ 63.5 µM) | 40 µg/mL (≈ 127 µM) | 30 µg/mL (≈ 95.3 µM) | 8 mm | 8 mm | 10 mm | 6 mm | 12 mm | 8 mm | 10 mm | 8 mm | 10 mm | 3 mm | 5 mm | 3 mm | zone of inhibition at 100 µg/mL [21]: 8 mm; zone of inhibition at 50 µg/mL [22]: 4 mm; inhibition [23]: 12%; inhibition [24]: 14%; inhibition [25]: 18%; Activity [26]: 28%; Activity [27]: 68%; Activity [28]: 11%; Activity [29]: 39%; Activity [30]: 69%; Activity [31]: 29%
COc1ccc(-c2nc(C3CC(c4ccccc4)=NN3c3ccccc3)no2)cc1OC (stereo not given) | 27.1% | 10 µg/mL (≈ 23.4 µM) | 10 µg/mL (≈ 23.4 µM) | 25 µg/mL (≈ 58.6 µM) | 20 µg/mL (≈ 46.9 µM) | 20 µg/mL (≈ 46.9 µM) | 20 µg/mL (≈ 46.9 µM) | 20 µg/mL (≈ 46.9 µM) | 12 mm | 18 mm | 14 mm | 10 mm | 10 mm | 7 mm | 14 mm | 8 mm | 12 mm | 8 mm | 12 mm | 8 mm | zone of inhibition at 100 µg/mL [21]: 14 mm; zone of inhibition at 50 µg/mL [22]: 8 mm; inhibition [23]: 52%; inhibition [24]: 71%; inhibition [25]: 14%; Activity [26]: 29%; Activity [27]: 68%; Activity [28]: 12%; Activity [29]: 56%; Activity [30]: 66%; Activity [31]: 26%
c1ccc(-c2cc(-c3noc(-c4ccccc4)n3)n(-c3ccccc3)n2)cc1 | 37% | 15 µg/mL (≈ 41.2 µM) | 20 µg/mL (≈ 54.9 µM) | 55 µg/mL (≈ 151 µM) | 40 µg/mL (≈ 110 µM) | 50 µg/mL (≈ 137 µM) | 55 µg/mL (≈ 151 µM) | 35 µg/mL (≈ 96 µM) | 9 mm | 18 mm | 10 mm | 10 mm | 9 mm | 3 mm | 6 mm | 3 mm | 6 mm | 4 mm | 6 mm | 3 mm | zone of inhibition at 100 µg/mL [21]: 8 mm; zone of inhibition at 50 µg/mL [22]: 5 mm; inhibition [23]: 40%; inhibition [24]: 67%; inhibition [25]: 26%; Activity [26]: 14%; Activity [27]: 65%; Activity [28]: 10%; Activity [29]: 28%; Activity [30]: 39%; Activity [31]: 18%
